Assay results: patent US8337835B2, “Use of an endogenous ligand for peroxisome proliferator activated receptor alpha to treat liver disorders” (priority 2009, dated 2012)

Assays:
[1] = tested on: PPARα-dependent genes ACO and CPT-1; test: Portal vein infusion, hepatic ACO and CPT-1 mRNA by RT-PCR; type: in vivo, mouse; settings: 10 mg/kg intraportal three times a day
Method: Total RNA was extracted from Hepa 1-6 cells and liver using Trizol (Invitrogen) and treated with DNase I (RNase-free, Roche Molecular Biochemicals). Reverse transcription to cDNA and real-time quantitative PCR were performed using previously published procedures and primer-probe sequences for ACO and CPT-1 (Chakravarthy et al., 2005). RT-PCR for ChPT1 and CEPT1 was performed using the following primer-probe sets: ChPT1 (Forward, 5′-[…]-3′ (SEQ ID NO: 3); Reverse, 5′-[…]-3′ (SEQ ID NO: 4); Probe, 5′-[…]-3′ (SEQ ID NO: 5)); CEPT1 (Forward, 5′-TGCTGGACGGTCCCTTCTC-3′ (SEQ ID NO: 6); Reverse, 5′-[…]-3′ (SEQ ID NO: 7); Probe, 5′-[…]-3′ (SEQ ID NO: 8)). RNA not subjected to reverse transcription was included in each assay as a negative control. […] Relative mRNA levels were calculated using both the comparative CT and standard curve methods normalized to ribosomal protein L32, an invariant internal control. […]
The objectives were achieved by portal vein infusion of 1-palmitoyl-2-oleoyl-sn-glycerol-3-phosphocholine (16:0/18:1-GPC) to rescue PPARα^−/− mice from fatty liver disease or hepatic steatosis, liver tissue extraction, RT-PCR gene expression analysis of the extracted liver tissue and lipid and triglyceride assessment of the extracted liver tissue. […] Fat staining of liver is shown in FIG. 7C and liver triglyceride quantified in FIG. 7D. […]

PPARγ LBD = target: T1, PPARγ LBD (Homo sapiens, UniProt P37231); test: ALPHASCREEN binding assay, PPARγ ligand binding domain; settings: 5 μM
T1 construct: Identical experiments were performed using the PPARδ and PPARγ LBDs; 6xHis; made in house
T1 sequence (P37231 238-503 limits assumed): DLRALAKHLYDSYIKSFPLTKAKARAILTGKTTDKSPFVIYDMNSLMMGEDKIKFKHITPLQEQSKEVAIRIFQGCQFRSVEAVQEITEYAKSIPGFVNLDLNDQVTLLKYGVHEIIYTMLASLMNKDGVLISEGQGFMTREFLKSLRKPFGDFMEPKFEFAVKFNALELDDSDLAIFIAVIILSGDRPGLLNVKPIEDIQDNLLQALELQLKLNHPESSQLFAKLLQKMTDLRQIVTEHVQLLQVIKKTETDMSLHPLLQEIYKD
Method: Binding of 16:0/18:1-GPC and known agonists to the ligand binding domain (LBD) of PPARα in the presence of various peptide motifs was determined by ALPHASCREEN™ assay (Proc Natl Acad Sci USA 105, pp. 5034-5039, 2008). Experiments used 100 nM receptor LBD, purified as 6× His tag fusion proteins (Mol Cell 17, pp. 491-502, 2005), and 20 nM of N-terminal biotinylated CBP1 peptide or other coactivator peptides in the presence of 5 μg/ml donor and acceptor beads in 50 mM MOPS (pH 7.4), 100 mM NaCl, and 0.1 mg/ml BSA for 90 min at 25° C. Signals were generated in the absence or the presence of ligand. Identical experiments were performed using the PPARδ and PPARγ LBDs.
Stealth™ siRNA oligonucleotides were used to inhibit the gene expression of mouse ChPT1 ([…]) (SEQ ID NO: 1) and CEPT1 ([…]) (SEQ ID NO: 2) were from Invitrogen (Carlsbad, Calif.). […] Expression of ACO and CPT-1 was also assessed 24 h after addition of 50 μM 16:0/18:1-GPC in a subset of Hepa 1-6 cells previously treated with CEPT1 siRNA. mRNA levels are normalized to control L32 ribosomal mRNA. […] FIGS. 6F-H show the binding of various peptide motifs to the purified PPARα (FIG. 6F), PPARδ (FIG. 6G), and PPARγ (FIG. 6H) LBD in the presence of 5 μM of the corresponding PPAR agonist or 16:0/18:1-GPC as measured by AlphaScreen assays. […]

Compound: CCCCCCCC/C=C\CCCCCCCC(=O)O[C@H](COC(=O)CCCCCCCCCCCCCCC)COP(=O)([O-])OCC[N+](C)(C)C [16:0/18:1-GPC, 1-palmitoyl-2-oleoyl-sn-glycerol-3-phosphocholine]
- hepatic ACO and CPT-1 expression ([1]; PPARα-deficient mice): not in PPARα-deficient mice
- hepatic ACO and CPT-1 expression ([1]; control (C57/BL6) mice): increased
- binding to PPARγ (PPARγ LBD): does not appear to bind
